{"source": "patent US20090259275A1", "about": "“METHODS OF TREATING BRAIN DAMAGES” (priority 2008, published 2009)", "key": {"[1]": {"test_system": "PAK1 phosphorylation", "experiment": "Immunoblot of PAK1 phosphorylation (serine 423) in EF-exposed explants", "assay_type": "cell-based, rat", "conditions": "DAPV; EF 250 mV/mm for 60 min", "description": "(§1) The methods for immunocytochemistry and coimmunoprecipitation have been described in detail in Ning et al., “Dual neuroprotective signaling mediated by downregulating two distinct phosphatase activities of PTEN,” J. Neurosci., 24, 4052-60, (2004); and Liu et al., “Ischemic insults direct glutamate receptor subunit 2-lacking AMPA receptors to synaptic sites,” J. Neurosci., 26, 5309-19 (2006), both of which are incorporated herein by reference. For immunocytochemical labeling, the guinea-pig anti-DCX (obtained from Santa Cruz Biotechnology, Santa Cruz, Calif.), mouse anti-nestin (obtained from Chemicon, Billerica, Mass.), rabbit anti-NR1 (obtained from Chemicon), and rabbit anti-NR2B (obtained from Novas Biologicals, Littleton, Colo.) primary antibodies were used. Secondary antibodies consisted of Alex Fluor 488 and 596 were purchased from Molecular Probes, Eugene, Oreg. Imaging was performed with a Zeiss LSM 510 META confocal microscope and image processing was performed with Image J software (obtained from NIH). For coimmunoprecipitation assay, rabbit anti-TIAM1 (obtained from Santa Cruz), rabbit anti-NR2B (obtained from Novus Biologicals), rabbit anti-phosphorylated PAK1 at serine 423 (obtained from Santa Cruz) and mouse anti-actin (obtained from Chemicon) were used. […]"}, "[2]": {"test_system": "association between actin and TIAM1", "experiment": "Coimmunoprecipitation of actin with TIAM1 in EF-exposed explants", "assay_type": "cell-based, rat", "conditions": "DAPV", "description": "as §1"}, "[3]": {"molecular_target": "T1, NMDAR association with TIAM1 (Rattus norvegicus, UniProt Q00960)", "T1 construct": "from tissue; host or cells: rat (Wistar) E17-18 lateral ganglionic eminence explant cultures", "T1 sequence (Q00960 27-1482, other chains not shown)": "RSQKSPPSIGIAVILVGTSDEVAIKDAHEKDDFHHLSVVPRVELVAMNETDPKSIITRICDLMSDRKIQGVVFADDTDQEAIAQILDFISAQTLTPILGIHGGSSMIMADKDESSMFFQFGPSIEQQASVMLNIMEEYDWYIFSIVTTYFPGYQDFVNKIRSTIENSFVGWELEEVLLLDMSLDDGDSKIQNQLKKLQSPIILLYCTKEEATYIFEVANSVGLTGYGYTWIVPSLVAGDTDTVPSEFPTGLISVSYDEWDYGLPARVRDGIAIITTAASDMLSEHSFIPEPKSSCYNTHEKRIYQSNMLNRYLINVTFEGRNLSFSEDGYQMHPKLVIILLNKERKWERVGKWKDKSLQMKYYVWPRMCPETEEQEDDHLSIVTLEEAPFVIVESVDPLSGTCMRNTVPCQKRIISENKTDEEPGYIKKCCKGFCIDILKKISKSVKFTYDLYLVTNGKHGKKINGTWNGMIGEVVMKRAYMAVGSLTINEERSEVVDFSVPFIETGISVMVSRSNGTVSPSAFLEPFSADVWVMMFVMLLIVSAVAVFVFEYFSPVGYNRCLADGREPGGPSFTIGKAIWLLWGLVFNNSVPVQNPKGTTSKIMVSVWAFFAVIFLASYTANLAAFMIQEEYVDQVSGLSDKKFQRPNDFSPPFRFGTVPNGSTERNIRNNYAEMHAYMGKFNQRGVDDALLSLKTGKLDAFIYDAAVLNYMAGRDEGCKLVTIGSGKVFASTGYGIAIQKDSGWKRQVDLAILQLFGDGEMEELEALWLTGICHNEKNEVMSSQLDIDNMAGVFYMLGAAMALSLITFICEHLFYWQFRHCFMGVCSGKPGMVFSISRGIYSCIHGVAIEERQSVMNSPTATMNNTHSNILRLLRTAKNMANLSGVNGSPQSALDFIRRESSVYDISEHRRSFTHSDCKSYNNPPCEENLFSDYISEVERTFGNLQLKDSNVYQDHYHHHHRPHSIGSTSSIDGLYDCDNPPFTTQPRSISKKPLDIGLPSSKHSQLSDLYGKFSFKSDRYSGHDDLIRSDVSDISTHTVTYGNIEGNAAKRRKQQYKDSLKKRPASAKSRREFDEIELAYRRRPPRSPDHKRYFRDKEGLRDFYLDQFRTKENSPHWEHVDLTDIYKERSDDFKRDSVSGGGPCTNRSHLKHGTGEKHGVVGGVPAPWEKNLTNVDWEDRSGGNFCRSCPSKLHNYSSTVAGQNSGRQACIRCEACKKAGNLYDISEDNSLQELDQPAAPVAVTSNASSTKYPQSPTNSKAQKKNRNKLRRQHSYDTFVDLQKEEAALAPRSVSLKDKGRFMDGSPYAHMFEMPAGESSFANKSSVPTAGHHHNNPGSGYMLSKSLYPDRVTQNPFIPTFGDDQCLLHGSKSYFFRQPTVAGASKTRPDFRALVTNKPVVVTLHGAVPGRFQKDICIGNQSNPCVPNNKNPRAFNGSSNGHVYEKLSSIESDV", "experiment": "Coimmunoprecipitation of NMDAR (NR2B) with TIAM1 in EF-exposed LGE explants", "assay_type": "cell-based", "conditions": "DAPV 10 μM, EF 250 mV/mm for 60 minutes", "description": "The methods for immunocytochemistry and coimmunoprecipitation have been described in detail in Ning et al., “Dual neuroprotective signaling mediated by downregulating two distinct phosphatase activities of PTEN,” J. Neurosci., 24, 4052-60, (2004); and Liu et al., “Ischemic insults direct glutamate receptor subunit 2-lacking AMPA receptors to synaptic sites,” J. Neurosci., 26, 5309-19 (2006), both of which are incorporated herein by reference. For immunocytochemical labeling, the guinea-pig anti-DCX (obtained from Santa Cruz Biotechnology, Santa Cruz, Calif.), mouse anti-nestin (obtained from Chemicon, Billerica, Mass.), rabbit anti-NR1 (obtained from Chemicon), and rabbit anti-NR2B (obtained from Novas Biologicals, Littleton, Colo.) primary antibodies were used. Secondary antibodies consisted of Alex Fluor 488 and 596 were purchased from Molecular Probes, Eugene, Oreg. Imaging was performed with a Zeiss LSM 510 META confocal microscope and image processing was performed with Image J software (obtained from NIH). For coimmunoprecipitation assay, rabbit anti-TIAM1 (obtained from Santa Cruz), rabbit anti-NR2B (obtained from Novus Biologicals), rabbit anti-phosphorylated PAK1 at serine 423 (obtained from Santa Cruz) and mouse anti-actin (obtained from Chemicon) were used.\nRearrangement of the actin cytoskeletal network is an essential process in neural migration. […]"}, "[4]": {"test_system": "NSPC migration toward cathode", "experiment": "EF-directed NSPC migration in LGE explant cultures", "assay_type": "cell-based, rat", "conditions": "DAPV 10 μM, EF 30 mV/mm for 10 hours", "procedure": "Explants (100-300 μm in diameter) were selected for observation. For the electric field (EF) application, agar-salt bridges were used to connect silver/silver chloride electrodes in beakers containing Steinberg's solution to pools of excess culture medium at either side of the chamber. The electric field strengths were measured directly at the beginning and end of the observation period. For time-lapse observation, HEPES acid (25 mM) was added to the culture medium to adjust pH to 7.4. Time-lapse imaging was performed with an inverted microscope (Zeiss Axiovert 200M, obtained from Zeiss, Oberkochen, Germany) that was used to record digitally the migration of NSPCs for 3 hours. […] At the end of exposure period explants were fixed in 4% paraformaldehyde and then digitally photographed for quantification. […] To quantify velocity and directedness of cell motion, the cell centroid was calculated with Image J software (obtained from NIH). […] The directedness of motion was expressed as a function of cosine. It was calculated by defining movements in the X-plane towards the cathode (or mock-cathode) as negative. […] For quantification of long-term EF-exposed cells, the symmetry was expressed as a function of the distribution of cells around the explant. Total cell numbers in the cathode and anode facing quadrants were calculated. […]"}, "[5]": {"test_system": "association of p-PAK1 with TIAM1", "experiment": "Coimmunoprecipitation of p-PAK1 with TIAM1 in EF-exposed LGE explants", "assay_type": "cell-based, rat", "conditions": "DAPV", "description": "as §1"}}, "note": "Entries after “also recorded” stand apart in the source; their conditions may differ.", "data": [{"smiles": "N[C@H](CCCP(=O)(O)O)C(=O)O", "note": "[DAPV]", "values": [{"measurement": "EF-mediated increase of PAK1 phosphorylation", "setting": "[1]", "value": "significantly attenuated; also recorded: blocked"}, {"measurement": "EF-induced increase of association between actin and TIAM1", "setting": "[2]", "value": "suppressed; also recorded: inhibited"}, {"measurement": "EF-induced increase of NMDAR (NR2B) association with TIAM1", "setting": "[3]", "value": "inhibited; also recorded: suppressed"}, {"measurement": "NSPC migration toward cathode on the cathode side of explants", "setting": "[4]", "value": "significantly inhibited; also recorded: significantly attenuated"}, {"measurement": "EF-enhanced association of p-PAK1 with TIAM1", "setting": "[5]", "value": "abolished"}]}]}
